Results from PMC8320897, “Inhibition of PI3K and MAPK pathways along with KIT inhibitors as a strategy to overcome drug resistance in gastrointestinal stromal tumors” (PLoS ONE, 2021).
pIC50: −log10 of the molar value.

What was measured:
GIST-T1 [1] = assay: Cell proliferation assay (Cell Counting Kit-8), drug screen; format: cell-based, human; conditions: Homo sapiens, GISTT1; cell viability after 72 hours of treatment; read-out: IC50 GIST-T1
GIST882 = assay: as above; format: cell-based; conditions: Homo sapiens, GIST882; cell viability after 72 hours of treatment; read-out: IC50 GIST882
GIST-T1/670 [2] = assay: Caspase 3/7 apoptosis assay; format: cell-based, human; conditions: GIST-T1/670, 48 h, single agent
Text: (§1) Inhibitor concentrations used were as mentioned in figure legends.
(§2) Fig 4 Combined Inhibition of KIT, PI3K and MAPK signaling pathways induces apoptosis in GIST cells. […] The data is represented as percent increase over untreated cells; each column represents mean of triplicates. […] (***p<0.0001); (**p<0.001); (*p<0.05).

GIST-T1/670 [3] = assay: Cell proliferation assay (Cell Counting Kit-8); format: cell-based, human; conditions: for pIC50: Homo sapiens, GISTT1, cell viability after 72 hours of treatment, read-out: IC50 T1/670
p-Akt = assay: Immunoblot analysis of p-Akt; format: cell-based; conditions: 100 nM, 24 h, all cell lines tested, western blot
GIST-T1/10R [4] = assay: Cell proliferation assay (Cell Counting Kit-8); format: cell-based, human; conditions: Homo sapiens, GISTT1; cell viability after 72 hours of treatment; read-out: IC50 T1-10R
GIST-T1/10R [5] = assay: Caspase 3/7 apoptosis assay; format: cell-based, human; conditions: 48 h, single agent
Text: as §1, §2

GIST-T1 [6] = assay: Caspase 3/7 apoptosis assay; format: cell-based, human; conditions: GIST-T1, 48 h, single agent
Text: as §1, §2

p-KIT = assay: Immunoblot analysis of p-KIT; format: cell-based; conditions: 100 nM, GIST882, 24 h, western blot
Procedure: (C) GIST882 cells were treated with the indicated inhibitor concentrations for 24 h and cell lysates were run on SDS-PAGE followed by immunoblotting to detect the indicated proteins. Data is representative of two independent experiments.

metastatic GIST = conditions: cited from earlier work
p-MAPK = assay: Immunoblot analysis of p-MAPK (p-ERK); format: cell-based; conditions: GIST-T1, IM 1 μM, 24 h, western blot
[7] = system: imatinib sensitive and resistant cell lines; assay: Caspase 3/7 apoptosis assay of screen hits; conditions: 24 h and 48 h; irinotecan 0.5 μM, sorafenib 500 nM, compound C 5 μM, triptolide 25 nM
Procedure: (§3) Around 10,000 cells/well were plated in complete media in 96-well white flat-bottom plates and therapeutic compounds were added 24 hours later. Apoptosis was evaluated by measuring caspase-3/7 activity using Caspase-Glo 3/7 Assay System (Promega, WI, USA) after 24 and 48 h of treatment with inhibitors. […] Inhibitor concentrations used were as mentioned in figure legends.
(§4) The data is represented as % of control; each bar represents the mean of triplicates. […] Cells were treated with inhibitors at indicated concentrations for 24 h.

[8] = system: imatinib-resistant cell lines; assay: Caspase 3/7 apoptosis assay of screen hits; format: cell-based; conditions: sorafenib 500 nM; both imatinib-resistant cell lines
Procedure: as §3, §4

GIST-T1/670 [9] = assay: Clonogenic (colony outgrowth) assay after drug removal; format: cell-based, human; conditions: single agent, 1 month treatment, 2 weeks drug-free
Procedure: Cells were treated with either IM (1 μM), SU (1 μM), RE (1 μM), GDC (500 nM), PD (500 nM), trametinib (500 nM), either alone or in combination for 1 month with replacement of fresh media with drug every week. Thereafter, cells were washed with PBS twice and fresh media without inhibitors was added and colonies were allowed to grow for 2 more weeks. The colonies were stained with crystal violet and counted. Untreated wells were not revived for extra 2 weeks.
After 1-month duration of treatment, cells were allowed to grow in drug-free media for two weeks before staining with crystal violet.

GIST cell lines = assay: Cell proliferation assay with trametinib; conditions: compared with PD, 72 h
[10] = clinical trials in GIST patients

Structure (SMILES)	pIC50 (GIST-T1 [1])	pIC50 (GIST882)	induction of apoptosis (caspase 3/7 activity) (GIST-T1/670 [2])	pIC50 (GIST-T1/670 [3])	pIC50 (GIST-T1/10R [4])	induction of apoptosis (caspase activity) (GIST-T1/10R [5])	induction of apoptosis (caspase 3/7 activity) (GIST-T1 [6])	other results
CS(=O)(=O)N1CCN(Cc2cc3nc(-c4cccc5[nH]ncc45)nc(N4CCOCC4)c3s2)CC1 [GDC-0941]	6.52	6.30	did not induce apoptosis	< 6.00	< 6.00	–	–	inhibition of phosphorylation of Akt (p-Akt): inhibits phosphorylation of Akt
Cc1ccc(NC(=O)c2ccc(CN3CCN(C)CC3)cc2)cc1Nc1nccc(-c2cccnc2)n1 [Imatinib]	–	–	did not induce apoptosis	–	–	did not show increase in caspase activity	did not induce apoptosis	inhibition of p-KIT (p-KIT): not sufficient to completely inhibit p-KIT; stable disease (metastatic GIST; KIT/PDGFRA-driven metastatic GIST, share of cases): approximately 85%; time of treatment to secondary resistance mutations (metastatic GIST; prolonged exposure): 18–24 months; inhibition of downstream MAPK signaling (p-MAPK): 50%
CNC(=O)c1cc(Oc2ccc(NC(=O)Nc3ccc(Cl)c(C(F)(F)F)c3)cc2)ccn1 [Sorafenib]	7.60	> 7.00	–	> 6.30	6.70	–	–	cytotoxic effects (caspase 3/7 activity) [7]: ≥ 2 fold; increase in apoptosis (caspase 3/7 activity) [8]: 4–8 fold; overall progression free survival (metastatic GIST; [10]): < 6 mo; overall response rate (metastatic GIST; [10]): < 10%
CCN(CC)CCNC(=O)c1c(C)[nH]c(/C=C2\C(=O)Nc3ccc(F)cc32)c1C [Sunitinib]	7.60	> 6.70	–	< 5.00	< 5.00	did not induce apoptosis	not effective	sensitivity of cell line (proliferation) (GIST-T1/670 [3]; GIST-T1/670, S1A Fig): sensitive; suppression of colony outgrowth (GIST-T1/670 [9]): effective; time until resistance occurs (metastatic GIST; second-line / third-line therapy): 6–12 months
CC(=O)Nc1cccc(-n2c(=O)n(C3CC3)c(=O)c3c(Nc4ccc(I)cc4F)n(C)c(=O)c(C)c32)c1 [TR, trametinib]	–	–	–	–	–	–	–	inhibition of cell proliferation as a single agent (GIST cell lines): better at inhibiting cell proliferation than PD
